Test results taken from ChEMBL document CHEMBL1212807, “Chemical reprogramming of Caenorhabditis elegans germ cell fate” (Nat Chem Biol, 2010).
Calls of active or inactive are those of the source. The calls are words filed in the database; no cut-off is given here.

Legend:
Caenorhabditis elegans [1] = test: Induction of oocyte production in Caenorhabditis elegans Bristol isolate N2 with puf-1; lip-1 double mutant
Caenorhabditis elegans [2] = test: Induction of oocyte production in Caenorhabditis elegans Bristol isolate N2 with […]; lip-1 double mutant at 100 uM; format: functional
Caenorhabditis elegans [3] = test: Induction of oocyte production in Caenorhabditis elegans Bristol isolate N2 with […]; lip-1 double mutant assessed as change in oocyte-specific cellular morphology at 50 uM; format: functional
Caenorhabditis elegans [4] = test: Induction of oocyte production in Caenorhabditis elegans Bristol isolate N2 with […]; lip-1 double mutant assessed as expression of oocyte marker RME-2 50 uM; format: functional, organism-based
Caenorhabditis elegans [5] = test: Decrease in activated MPK-1/ERK levels in Caenorhabditis elegans Bristol isolate N2 by Western blot method at 50 uM; format: functional, organism-based

With `N#CC(=C(/N)Sc1ccccc1N)/C(C#N)=C(\N)Sc1ccccc1N` the EC50 (Caenorhabditis elegans [1]) was 2 µM.
`COc1cccc(-c2cc(=O)c3ccccc3o2)c1N` showed an Activity (Caenorhabditis elegans [2]) of 5.3%.
For `O=C(NOC[C@H](O)CO)c1ccc(F)c(F)c1Nc1ccc(I)cc1F` [MIRDAMETINIB], the Activity (Caenorhabditis elegans [3]) was 91%, the Activity (Caenorhabditis elegans [4]) was “Active” and the Activity (Caenorhabditis elegans [5]) was “Active”.
